# Activity calls are given as the source filed them. The rule behind the calls is not given here.
# Experiments:
# CH1 [1] = test: Growth inhibition of doxorubicin-susceptible human CH1 cells after 96 hrs by sulforhodamine B assay; format: functional; details: CH1, 96 h
# [2] = molecular target: Mitogen-activated protein kinase 1 (Homo sapiens, UniProt P28482); test: Inhibition of ERK2
# A2780 [3] = test: Growth inhibition of cisplatin-resistant human A2780 cells after 96 hrs by sulforhodamine B assay; format: functional; details: A2780, 96 h
# [4] = molecular target: Cyclin-dependent kinase 4/cyclin D1 (Homo sapiens, UniProt P11802); test: Inhibition of CDK4/cyclin D1; format: protein-complex assay
# [5] = molecular target: Cyclin-dependent kinase 7/ cyclin H (Homo sapiens, UniProt P50613); test: Inhibition of CDK7/cyclin H; format: protein-complex assay
# [6] = molecular target: Cyclin-dependent kinase 1/cyclin B1 (Homo sapiens, UniProt P06493); test: Inhibition of CDK1/cyclin B; format: protein-complex assay
# CH1 [7] = test: Growth inhibition of doxorubicin-resistant human CH1 cells after 96 hrs by sulforhodamine B assay; format: functional; details: CH1, 96 h
# A2780 [8] = test: Growth inhibition of cisplatin-susceptible human A2780 cells after 96 hrs by sulforhodamine B assay; format: functional; details: A2780, 96 h
# [9] = Inhibition of PKA
# [10] = molecular target: Cyclin-dependent kinase 2/cyclin E1 (Homo sapiens, UniProt P24941); test: Inhibition of CDK2/cyclin E; format: protein-complex assay
# KM12 = test: Growth inhibition of human KM12 cells after 96 hrs by sulforhodamine B assay; format: functional; details: KM12, 96 h
# HCT-116 [11] = test: Growth inhibition of human HCT116 cells after 96 hrs by sulforhodamine B assay; format: functional; details: HCT-116, 96 h
# [12] = Metabolic stability in mouse liver microsomes assessed as compound metabolized at 10 uM after 30 mins by LC-MS analysis; format: ADME, Microsome; details: read-out: Activity
# HT-29 [13] = test: Growth inhibition of human HT-29 cells after 96 hrs by sulforhodamine B assay; format: functional; details: HT-29, 96 h
# CDK9/cyclin T1 = CDK9/cyclin T1 (Homo sapiens, UniProt P50750); test: Inhibition of CDK9/cyclin T1; format: protein-complex assay
# [14] = AUC in BALB/c mouse plasma at 50 mg/kg, iv after 24 hrs by LC-MS analysis; format: ADME, organism-based; parameters: time < 24 hr, dose 50 mg/kg, route intravenous
# [15] = Half life in BALB/c mouse plasma at 50 mg/kg, iv by LC-MS analysis; format: ADME, organism-based; parameters: dose 50 mg/kg, route intravenous
# [16] = Oral bioavailability in BALB/c mouse at 50 mg/kg by LC-MS analysis; format: ADME, organism-based; details: in vivo
# [17] = Cmax in BALB/c mouse plasma at 50 mg/kg, iv after 24 hrs by LC-MS analysis; format: ADME, organism-based; parameters: dose 50 mg/kg, route intravenous
# [18] = Clearance in BALB/c mouse plasma at 50 mg/kg, iv after 24 hrs by LC-MS analysis; format: ADME, organism-based; parameters: dose 50 mg/kg, route intravenous
# [19] = Solubility of the compound in water; format: physicochemical
# [20] = Volume of distribution in BALB/c mouse plasma at 50 mg/kg, iv after 24 hrs by LC-MS analysis; format: ADME, organism-based; parameters: dose 50 mg/kg, route intravenous
# Mus musculus = test: Ratio of Seliciclib clearance to compound clearance in BALB/c mouse plasma at 50 mg/kg, iv after 24 hrs by LC-MS analysis; format: ADME, organism-based; parameters: dose 50 mg/kg, route intravenous; details: in vivo
# HCT-116 [21] = test: Antitumor activity against human HCT116 cells xenografted in NCR athymic mouse assessed as reduction in tumor volume at 50 mg/kg, po twice daily at 12 to 14 hrs intervals measured after 12 days relative to vehicle treated control; format: functional; parameters: scale not given: the % may be the effect or the level left
# HT-29 [22] = test: Inhibition of CDK-mediated RB phosphorylation at Ser-780 in human HT29 cells at 0.1 to 20 uM after 24 hrs by Western blotting relative to control; format: cell-based
# HCT-116 [23] = test: Antitumor activity against human HCT116 cells xenografted in NCR athymic mouse assessed as growth delay at 50 mg/kg, po twice daily at 12 to 14 hrs intervals measured after 12 days relative to vehicle treated control; format: functional, organism-based; parameters: dose 50 mg/kg
# HT-29 [24] = test: Cell cycle arrest in human HT-29 cells assessed as reduction at S phase at 3.3 uM up to 16 hrs measuring distribution of bromodeoxyuridine incorporation by flow cytometry; format: functional, cell-based
# HT-29 [25] = test: Cell cycle arrest in human HT-29 cells assessed as accumulation at G2/M phase at 3.3 uM up to 16 hrs measuring distribution of bromodeoxyuridine incorporation by flow cytometry; format: functional, cell-based
# HT-29 [26] = test: Reduction of RNA polymerase 2 expression in human HT-29 cells; format: functional, cell-based
# Chain of Cyclin-dependent kinase 7/ cyclin H (P51946 whole entry): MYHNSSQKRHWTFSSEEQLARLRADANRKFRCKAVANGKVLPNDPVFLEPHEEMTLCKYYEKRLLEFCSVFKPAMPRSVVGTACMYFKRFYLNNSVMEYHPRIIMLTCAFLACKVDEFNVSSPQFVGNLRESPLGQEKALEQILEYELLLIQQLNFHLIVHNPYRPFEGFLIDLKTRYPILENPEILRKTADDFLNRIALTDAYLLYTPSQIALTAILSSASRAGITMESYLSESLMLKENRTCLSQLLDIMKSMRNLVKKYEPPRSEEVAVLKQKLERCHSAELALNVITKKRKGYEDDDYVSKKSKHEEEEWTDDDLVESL
# Chain of Cyclin-dependent kinase 7/ cyclin H (P50613 whole entry): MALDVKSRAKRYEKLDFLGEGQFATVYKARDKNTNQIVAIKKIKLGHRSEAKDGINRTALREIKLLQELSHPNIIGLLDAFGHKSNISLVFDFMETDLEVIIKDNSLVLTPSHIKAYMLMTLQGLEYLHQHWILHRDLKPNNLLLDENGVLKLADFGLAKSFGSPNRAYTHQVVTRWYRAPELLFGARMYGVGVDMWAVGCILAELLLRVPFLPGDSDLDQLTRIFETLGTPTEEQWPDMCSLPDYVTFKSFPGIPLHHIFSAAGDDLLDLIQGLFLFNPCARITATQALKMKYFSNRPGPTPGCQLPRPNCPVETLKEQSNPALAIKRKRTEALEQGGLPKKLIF
# Chain of Cyclin-dependent kinase 1/cyclin B1 (P06493 whole entry): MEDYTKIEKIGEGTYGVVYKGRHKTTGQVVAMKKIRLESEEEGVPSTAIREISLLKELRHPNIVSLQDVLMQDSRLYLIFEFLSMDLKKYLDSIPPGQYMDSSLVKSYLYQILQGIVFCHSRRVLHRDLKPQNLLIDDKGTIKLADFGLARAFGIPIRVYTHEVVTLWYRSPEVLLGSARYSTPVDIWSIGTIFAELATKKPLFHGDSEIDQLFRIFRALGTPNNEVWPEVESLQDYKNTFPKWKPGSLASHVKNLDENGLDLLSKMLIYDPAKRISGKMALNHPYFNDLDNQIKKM
# Chain of Cyclin-dependent kinase 1/cyclin B1 (P14635 whole entry, further chain): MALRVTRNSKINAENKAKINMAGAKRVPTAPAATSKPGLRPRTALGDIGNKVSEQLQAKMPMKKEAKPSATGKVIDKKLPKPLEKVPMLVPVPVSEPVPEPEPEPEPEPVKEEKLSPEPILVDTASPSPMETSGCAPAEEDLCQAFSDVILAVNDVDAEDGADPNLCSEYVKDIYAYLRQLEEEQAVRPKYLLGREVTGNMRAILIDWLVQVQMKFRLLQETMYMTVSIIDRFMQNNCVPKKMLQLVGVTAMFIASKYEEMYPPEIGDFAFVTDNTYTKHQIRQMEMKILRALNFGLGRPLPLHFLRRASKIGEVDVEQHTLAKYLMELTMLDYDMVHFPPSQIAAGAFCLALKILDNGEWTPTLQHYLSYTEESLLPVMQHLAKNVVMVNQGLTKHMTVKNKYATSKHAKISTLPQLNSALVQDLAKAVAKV
# Chain of Cyclin-dependent kinase 4/cyclin D1 (P11802 whole entry): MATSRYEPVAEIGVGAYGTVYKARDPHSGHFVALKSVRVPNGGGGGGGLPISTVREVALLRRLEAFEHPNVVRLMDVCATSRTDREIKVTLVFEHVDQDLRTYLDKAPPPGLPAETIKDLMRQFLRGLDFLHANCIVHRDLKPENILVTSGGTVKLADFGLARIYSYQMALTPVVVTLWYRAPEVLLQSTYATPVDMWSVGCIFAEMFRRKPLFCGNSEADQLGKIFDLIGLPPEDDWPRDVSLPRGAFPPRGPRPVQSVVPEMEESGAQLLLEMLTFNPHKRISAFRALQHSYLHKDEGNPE
# Chain of Cyclin-dependent kinase 4/cyclin D1 (P24385 whole entry, further chain): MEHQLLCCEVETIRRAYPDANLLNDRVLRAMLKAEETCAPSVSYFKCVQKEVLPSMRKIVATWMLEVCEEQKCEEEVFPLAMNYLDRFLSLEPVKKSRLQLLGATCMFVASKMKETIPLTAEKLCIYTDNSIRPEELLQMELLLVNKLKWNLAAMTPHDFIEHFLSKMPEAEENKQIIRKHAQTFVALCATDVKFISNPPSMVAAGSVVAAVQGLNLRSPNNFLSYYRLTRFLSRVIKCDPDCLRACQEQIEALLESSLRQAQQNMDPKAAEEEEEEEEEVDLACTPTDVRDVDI
# Chain of Mitogen-activated protein kinase 1 (P28482 whole entry): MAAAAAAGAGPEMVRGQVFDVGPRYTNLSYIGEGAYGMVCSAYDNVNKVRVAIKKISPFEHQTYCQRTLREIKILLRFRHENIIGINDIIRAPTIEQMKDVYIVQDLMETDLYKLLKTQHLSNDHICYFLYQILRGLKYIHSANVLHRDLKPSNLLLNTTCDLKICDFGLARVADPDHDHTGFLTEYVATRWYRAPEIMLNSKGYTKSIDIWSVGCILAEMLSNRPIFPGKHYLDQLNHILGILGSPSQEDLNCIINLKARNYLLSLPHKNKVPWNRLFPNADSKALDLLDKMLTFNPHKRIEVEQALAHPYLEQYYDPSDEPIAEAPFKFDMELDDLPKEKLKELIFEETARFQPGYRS
# Chain of CDK9/cyclin T1 (O60563 whole entry): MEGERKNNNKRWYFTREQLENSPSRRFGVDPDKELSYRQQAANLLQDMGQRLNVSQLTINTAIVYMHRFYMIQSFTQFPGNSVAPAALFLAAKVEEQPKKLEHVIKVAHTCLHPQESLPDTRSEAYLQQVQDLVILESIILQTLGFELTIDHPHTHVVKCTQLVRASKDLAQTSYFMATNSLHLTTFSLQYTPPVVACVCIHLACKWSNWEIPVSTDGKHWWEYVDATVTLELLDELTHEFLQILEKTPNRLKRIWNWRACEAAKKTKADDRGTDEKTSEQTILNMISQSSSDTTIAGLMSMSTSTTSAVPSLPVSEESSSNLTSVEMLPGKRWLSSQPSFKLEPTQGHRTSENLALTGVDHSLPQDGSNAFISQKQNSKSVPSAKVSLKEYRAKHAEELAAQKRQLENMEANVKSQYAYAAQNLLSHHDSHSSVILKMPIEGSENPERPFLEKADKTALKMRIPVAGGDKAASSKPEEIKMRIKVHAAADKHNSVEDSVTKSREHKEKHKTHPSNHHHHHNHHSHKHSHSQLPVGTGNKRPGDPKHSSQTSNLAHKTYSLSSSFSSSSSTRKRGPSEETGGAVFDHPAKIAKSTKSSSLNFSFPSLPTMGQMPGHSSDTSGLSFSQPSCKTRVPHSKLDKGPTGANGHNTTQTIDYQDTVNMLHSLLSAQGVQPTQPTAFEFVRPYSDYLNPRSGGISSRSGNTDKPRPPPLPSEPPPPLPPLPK
# Chain of CDK9/cyclin T1 (P50750 whole entry): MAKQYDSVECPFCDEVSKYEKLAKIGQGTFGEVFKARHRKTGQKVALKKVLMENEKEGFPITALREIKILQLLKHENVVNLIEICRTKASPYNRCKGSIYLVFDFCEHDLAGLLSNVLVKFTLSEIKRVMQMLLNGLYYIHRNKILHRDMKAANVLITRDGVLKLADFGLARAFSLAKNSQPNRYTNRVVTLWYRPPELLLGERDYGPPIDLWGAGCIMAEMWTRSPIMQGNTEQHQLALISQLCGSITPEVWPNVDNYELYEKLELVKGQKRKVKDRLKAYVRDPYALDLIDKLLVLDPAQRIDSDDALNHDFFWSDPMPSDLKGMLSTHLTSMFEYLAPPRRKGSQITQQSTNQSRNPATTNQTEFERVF
SMILES,GI50 (A2780 [3]) [µM],IC50 [4] [µM],IC50 [5] [µM],IC50 [6] [µM],GI50 (A2780 [8]) [µM],IC50 [9] [µM],IC50 [10] [µM],GI50 (HCT-116 [11]) [µM],"metabolised at 0.5 h, 10 µM [12] [%]",GI50 (HT-29 [13]) [µM],AUC at 24 h [14] [µM·h],half-life [15] [h],bioavailability [16] [%],Cmax [17] [µM],clearance [18] [mL/min],solubility ([19]; buffer),Vd [20] [L],GI50 (CH1 [1]) [µM],GI50 (CH1 [7]) [µM],GI50 (KM12) [µM],further results
CC[C@H](Nc1nc(NCc2ccccn2)c2ncn(C(C)C)c2n1)C(C)(C)O,44,20,4.3,24,19,> 200,0.31,32,53,> 50,,,,,,,,42,26,38,IC50 [2]: > 200 µM
CC[C@H](Nc1nc(NCc2cccnc2)c2ncn(C(C)C)c2n1)[C@@H](C)O.O=C(O)C(F)(F)F,,,,,,,,,,,,,,,,,,,,,"solubility ([19]; water, read-out: solubility): > 25 mg/mL"
CC[C@H](Nc1nc(NCc2cccnc2)c2ncn(C(C)C)c2n1)[C@@H](C)O [listing 2 of 2 here],,,,,,,,,,,,,,,,,,,,,inhibition (HT-29 [22]): Active; Activity (HCT-116 [23]): Active; Activity (HT-29 [24]): Active; Activity (HT-29 [25]): Active; Activity (HT-29 [26]): Active
CC[C@@H](Nc1nc(NCc2ccccn2)c2ncn(C(C)C)c2n1)C(C)O (mixture of isomers),27,48,0.55,39,15,> 200,0.52,18,97,42,,,,,,,,20,20,37,IC50 [2]: 73 µM
CC[C@H](Nc1nc(NCc2ccccn2)c2ncn(C(C)C)c2n1)C(C)O (mixture of isomers),17,18,2.6,8.9,10,> 200,0.05,10,67,20,,,,,,,,21,15.5,23,IC50 [2]: 77 µM
CC[C@H](CO)Nc1nc(NCc2ccccc2)c2ncn(C(C)C)c2n1 [SELICICLIB],,,,,4.45,> 50,,5.05,67,6.4,53.4,1.4,,93.7,0.85,,0.073,3.25,5.4,,

# The next lines start with results.
GI50 (A2780 [3]) [µM],IC50 [4] [µM],IC50 [5] [µM],IC50 [6] [µM],GI50 (A2780 [8]) [µM],IC50 [9] [µM],IC50 [10] [µM],GI50 (HCT-116 [11]) [µM],"metabolised at 0.5 h, 10 µM [12] [%]",GI50 (HT-29 [13]) [µM],AUC at 24 h [14] [µM·h],half-life [15] [h],bioavailability [16] [%],Cmax [17] [µM],clearance [18] [mL/min],solubility ([19]; buffer),Vd [20] [L],SMILES,GI50 (CH1 [1]) [µM],GI50 (CH1 [7]) [µM],GI50 (KM12) [µM],further results
21,7.5,3.1,6.2,10,> 200,0.2,13,16,19,223,0.6,15,275,0.2,soluble,0.01,CC[C@@H](Nc1nc(NCc2cccnc2)c2ncn(C(C)C)c2n1)C(C)(C)O,20,21,13,IC50 (CDK9/cyclin T1): 0.21 µM; Ratio (Mus musculus): 2
5.8,12,2.5,4.4,4,> 200,0.07,4.1,22,5.4,109,0.4,15,215,0.4,soluble,0.012,CC[C@H](Nc1nc(NCc2cccnc2)c2ncn(C(C)C)c2n1)C(C)(C)O,5,6.8,5.4,IC50 (CDK9/cyclin T1): 0.16 µM; Ratio (Mus musculus): 2
,,,,,,,,,,158,1.7,15,377,0.283,soluble,0.084,CC[C@@H](Nc1nc(NCc2cccnc2)c2ncn(C(C)C)c2n1)[C@H](C)O,,,,
,,,,,,,,,,298,2.8,15,268,0.15,soluble,0.013,CC[C@H](Nc1nc(NCc2cccnc2)c2ncn(C(C)C)c2n1)[C@@H](C)O [listing 1 of 2 here],,,,Activity (HCT-116 [21]): 49%
12.5,11,1.5,13,4.3,> 200,0.11,5.4,27,12.5,,,,,,,,CCC(O)[C@H](CC)Nc1nc(NCc2cccnc2)c2ncn(C(C)C)c2n1 (mixture of isomers),11,9.4,8.2,
26.5,31,3.5,22,19,> 200,1.1,22,62,26,,,,,,,,CC[C@H](Nc1nc(NCc2cccnc2)c2ncn(C(C)C)c2n1)C(O)C(C)C (mixture of isomers),22,20.5,22,
22,13,3.5,21,18,> 200,0.39,24,50,22,,,,,,,,CC[C@H](Nc1nc(NCc2cccnc2)c2ncn(C(C)C)c2n1)C(O)C(C)(C)C (mixture of isomers),23,18.5,19,

# — ChEMBL document CHEMBL1921760, “Design, synthesis and biological evaluation of 6-pyridylmethylaminopurines as CDK inhibitors” (Bioorg Med Chem, 2011)
